{"source": "patent US11090389B2", "about": "“Mitochondrially targeted PARP inhibitor, and uses thereof” (University of Pittsburgh—Of the Commonwealth System of …, priority 2016, dated 2021)", "key": {"[1]": {"system": "rat primary cortical neurons", "assay": "Cytotoxicity in rat primary cortical neurons, LDH release at 24 h", "conditions": "for concentration at which neurotoxicity (defined as >10% cell death) was seen: n=6/group", "experimental": "Cytotoxicity was assessed by LDH release from dying neurons at 24 h."}, "primary cortical neurons [2]": {"system": "primary cortical neurons", "assay": "Oxygen-glucose deprivation (OGD) in primary cortical neurons, LDH release", "type": "cell-based, rat", "experimental": "(§1) To model ischemia-reperfusion in vitro, culture medium was replaced with a pre-equilibrated low glucose (0.5 mM) medium. Neurons were transferred into a sealed hypoxic chamber (Coy Laboratory Products Inc., Grass Lake, Mich.) set to an atmosphere of 95% N2 with 5% CO2 at 37° C. for 2 h. After OGD neurons were removed from the chamber and returned to the incubator.\nTo determine whether mitochondria-targeting XJB-veliparib can promote neuronal survival in ischemia-like conditions in vitro, primary cortical neurons at 12 DIV were subjected to OGD. Cultured neurons were exposed to a hypoxic and glucose-depleted environment for 2 h, followed by normal culture conditions for 24 h to mimic ischemia/reperfusion injury. […] Specifically, 10 nM XJB-veliparib reduced cell death by 67% (LDH release 12.4±3.1% vs. 38.0±2.5%, 10 nM XJB-veliparib vs. vehicle; mean±SD; P<0.05)."}, "primary cortical neurons [3]": {"system": "primary cortical neurons", "assay": "Mitochondrial and cytosolic NAD+ concentration in primary cortical neurons after OGD", "type": "cell-based, rat", "conditions": "for mitochondrial NAD+ stores after OGD: 10 nM before OGD, measured 24 h after OGD", "experimental": "FIG. 8. Mitochondrial and cytosolic NAD^+ concentration in primary cortical neurons after OGD. […] NAD+ concentration measured 24 h after OGD. Assay performed in duplicate.\nas §1"}, "[4]": {"system": "mouse embryo fibroblasts (MEF)", "assay": "IR-induced cell death in mouse embryo fibroblasts, Annexin V/PI flow cytometry", "type": "cell-based", "conditions": "for survival after IR: 10, 20 μM for 30 min prior to 10 Gy IR, survival at 48 h, mean±SD, vehicle 68.4%±2.2", "experimental": "MEF cells were treated with 10, 20 μM XJB-veliparib for 30 min prior to 10 Gy IR (309 R/min, Cs137 source), media was changed to drugless media 4 h post-IR. Survival was assessed at 48 h by Annexin V-FTIC/PI flow cytometry. […] Mean±SD, *p<0.05, ****p<0.0001."}, "primary cortical neurons [5]": {"system": "primary cortical neurons", "assay": "Cellular localization of poly(ADP-ribose) polymers after OGD (immunofluorescence, confocal and STED microscopy)", "type": "cell-based, rat", "conditions": "10 nM, OGD 2 h; for PAR immunofluorescence after OGD (confocal): triplicate", "experimental": "Neurons grown on poly-D-lysine coated glass coverslips were fixed in 2% paraformaldehyde and permeabilized with TritonX-100. Coverslips were then incubated in a 1:200 dilution of mouse monoclonal antibody against PAR (SA216, ENzo Life Sciences, Inc., Farmingdale, N.Y.) and an antibody against TOMM20 (Abcam, Cambridge, Mass.) followed by incubation in the appropriate secondary antibodies. Cell nuclei were labelled with 4′,6 diamidino-2-phenylindole (DAPI) for standard confocal microscopy or DRAQ5 (both from ThermoFisher Scientific, Waltham, Mass.) for STED microscopy. Images were collected using an Olympus Fluoview 1000 confocal microscope (Olympus Corporation of the Americas, Center Valley, Pa.).\nFor STED imaging a Leica TCS SP8 super resolution STED microscope with a pulsed white light laser and AOBS detection system was used (Leica Microsystems, Wetzlar, Germany). Images were collected using the 775 nm STED laser line with 30% 3D STED using the Leica STED WHITE oil objective lens (HC PL APO 100×/1.40 OIL) with a 200 Hz scan speed and 2× line averaging. Pixel size was set to 45 nm/pixel, step size was set to […], and pinhole was set at 132.8 μm (0.875 AU). TOMM20 was visualized using Alexa Fluor 555, exciting at 553 nm and detecting between 558-599 nm and temporally gate between […]. PAR was visualized with Alexa Fluor 594, exciting at 598 nm and detecting between 603-666 nm and temporally gated between 0.3-6.0 nsec. DRAQ5 (ThermoFisher Scientific, Waltham, Mass.) was excited at 662 and detected between 667 to 780 nm and temporally gated between 0.3-6.0 nsec. Channels were collected between stacks, sequentially.\nThe cellular localization of poly(ADP-ribose) (PAR) polymers, a footprint of PARP activation, was examined in primary cortical neurons after OGD using immunohistochemistry and confocal microscopy.\nTo evaluate the impact of XJB-veliparib on mitochondrial structure after OGD, we used stimulation emission depletion (STED) microscopy and immunohistochemistry. Primary rat cortical neurons were treated with 10 nM XJB-veliparib or vehicle and then exposed to OGD for 2 h."}, "[6]": {"system": "mouse embryo fibroblasts (MEF)", "assay": "γ-irradiation-induced mitochondrial DNA damage in MEFs (qPCR)", "type": "cell-based", "conditions": "20 μM for 30 min prior to 10 Gy IR", "experimental": "PARylation of mtDNA repair enzymes, polymerase-γ and exo/endonucleaseG, by mt-PARP1 is thought interfere with normal mtDNA repair. […] Cells were harvested and DNA extracted 4 and 24 h post-IR. […] ANOVA, *p<0.05, **p<0.01."}, "HT22 cells": {"system": "HT22 cells", "assay": "Glutamate-induced ferroptotic cell death in HT22 cells, LDH release", "type": "cell-based, mouse", "conditions": "5 mM glutamate; for effect on glutamate-induced ferroptosis: LDH release at 24 h", "experimental": "HT22 cells were cultured at 37° C. in Dulbecco's modified Eagle's medium (DMEM) (Invitrogen Inc., Carlsbad, Calif.) supplemented with 10% fetal bovine serum (FBS) (Thermo Fisher Scientific, San Jose, Calif.) and 1% penicillin-streptomycin (ATCC, Manassas, Va.) in an atmosphere containing 5% CO2. Cells were cultured for 24 to 48 hr before use."}, "PARP1 [7]": {"biological_target": "T1, PARP1 (Homo sapiens, UniProt P09874)", "T1 sequence (P09874 whole entry)": "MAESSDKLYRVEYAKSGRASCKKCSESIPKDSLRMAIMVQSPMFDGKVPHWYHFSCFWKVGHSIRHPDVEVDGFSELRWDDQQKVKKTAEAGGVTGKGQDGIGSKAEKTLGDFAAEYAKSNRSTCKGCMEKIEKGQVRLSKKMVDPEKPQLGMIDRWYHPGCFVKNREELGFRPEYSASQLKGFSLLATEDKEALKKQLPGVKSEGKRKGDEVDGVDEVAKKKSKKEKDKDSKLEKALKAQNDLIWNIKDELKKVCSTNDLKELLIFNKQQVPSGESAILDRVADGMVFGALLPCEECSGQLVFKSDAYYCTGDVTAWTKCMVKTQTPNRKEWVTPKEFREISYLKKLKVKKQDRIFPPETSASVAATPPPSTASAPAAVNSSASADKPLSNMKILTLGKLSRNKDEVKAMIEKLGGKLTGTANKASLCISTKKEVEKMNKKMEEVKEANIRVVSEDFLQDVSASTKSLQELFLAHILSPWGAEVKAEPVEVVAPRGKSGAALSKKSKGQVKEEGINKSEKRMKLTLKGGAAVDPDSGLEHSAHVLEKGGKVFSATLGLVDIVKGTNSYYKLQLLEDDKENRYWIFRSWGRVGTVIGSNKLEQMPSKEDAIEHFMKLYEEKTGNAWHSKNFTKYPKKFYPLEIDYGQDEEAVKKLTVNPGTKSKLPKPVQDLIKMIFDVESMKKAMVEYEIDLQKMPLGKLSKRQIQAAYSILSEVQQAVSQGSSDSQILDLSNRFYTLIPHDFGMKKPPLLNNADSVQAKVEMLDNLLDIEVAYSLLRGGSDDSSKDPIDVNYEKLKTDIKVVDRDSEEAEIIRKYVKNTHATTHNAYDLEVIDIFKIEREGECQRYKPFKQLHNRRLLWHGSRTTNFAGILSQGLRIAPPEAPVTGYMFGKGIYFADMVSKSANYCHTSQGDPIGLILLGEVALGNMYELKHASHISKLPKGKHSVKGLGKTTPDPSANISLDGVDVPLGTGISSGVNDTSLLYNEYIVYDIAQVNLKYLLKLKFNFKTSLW", "assay": "PARP1 activity, commercial assay (Trevigen), histone-coated wells with active PARP1 enzyme and NAD+", "type": "biochemical", "conditions": "active PARP1 enzyme; triplicate; FIG. 4", "experimental": "The capacity to inhibit PARP1 was determined using a commercial assay (Trevigen, Gaithersburg, Md.) as per manufacturer's direction."}, "[8]": {"assay": "Mitochondrial enrichment: LC-MS quantification in mitochondria- and nuclear-enriched fractions of neurons", "type": "in vitro ADME, rat", "conditions": "neurons exposed to 100 nM for 24 h; mean±SD; n=3", "experimental": "Water (150 μL) was added and the solution was vortexed (15 sec) and set aside to equilibrate at room temperature (30 min). The resulting suspension was placed in an Eppendorf Centrifuge 5702 (4400 rpm, 20° C.) for 12 min. The organic layer was extracted and filtered through a 0.45 μm filter for analysis.\nThe concentration was reported as pM concentration of XJB-Veliparib per 10 μg of protein with corresponding standard deviation values.\nTo verify mitochondrial enrichment, rat primary cortical neurons were exposed to 100 nM XJB-veliparib for 24 h. Mitochondria- and nuclear-enriched subcellular fractions were obtained and verified by western blot using antibodies against the cytochrome oxidase subunit Vα (COX Vα) and histone H3, respectively (FIG. 6A). In mitochondria-enriched fractions, the LCMS analysis of XJB-veliparib indicated a concentration of 116±55 pmol/10 μg protein compared with 29±27 pmol/10 μg protein in nuclear-enriched fractions (FIG. 6B; mean±standard deviation [SD]; n=3 independent experiments)."}, "PARP1 [9]": {"biological_target": "T1, PARP1", "assay": "PARP1 inhibitory capacity of mitochondria-enriched fractions spiked with active PARP1 enzyme", "type": "biochemical", "conditions": "triplicate"}}, "data": [{"smiles": "CC1(c2nc3c(C(N)=O)cccc3[nH]2)CCCN1", "note": "(stereo in doubt) [veliparib, 1,2-[(S)-2-methylpyrrolidin-2-yl]-1H-benzimidazole-4-carboxamide, reference compound]", "values": [{"measurement": "concentration at which neurotoxicity (defined as >10% cell death) was seen", "setting": "[1]", "value": 1, "unit": "µM"}, {"measurement": "protection against OGD at concentrations >100 nM", "setting": "primary cortical neurons [2]", "value": "no additional protection"}, {"measurement": "mitochondrial NAD+ stores after OGD", "setting": "primary cortical neurons [3]", "value": "preserve mitochondrial NAD^+ stores"}, {"measurement": "survival after IR", "setting": "[4]", "value": 57.1, "unit": "%"}, {"measurement": "PAR immunofluorescence after OGD (confocal)", "setting": "primary cortical neurons [5]", "value": "reduction of PAR immunofluorescence"}, {"measurement": "effect on mtDNA lesions compared to vehicle irradiated cells", "setting": "[6]", "value": "no effect"}, {"measurement": "effect on glutamate-induced ferroptosis", "setting": "HT22 cells", "value": "inhibit glutamate-induced ferroptosis"}]}, {"smiles": "CC(C)C[C@@H](/C=C/[C@H](Cc1ccccc1)C(=O)N1CCC[C@H]1C(=O)N[C@H](C(=O)N[C@@H](CCCNC(=O)OCc1ccccc1)C(=O)NCCCNC(=O)c1cccc2[nH]c([C@]3(C)CCCN3)nc12)C(C)C)NC(=O)OC(C)(C)C", "note": "[XJB-Veliparib, tert-Butyl ((4S,7S, E)-7-benzyl-2-methyl-8-((S)-2-(((S)-3-methyl-1-(((S)-15-(2-((S)-2-methylpyrrolidin-2-yl)-1H-benzo[d]imidazol-4-yl)-3,9,15-trioxo-1-phenyl-2-oxa-4, 10,14-triazapentadecan-8-yl)amino)-1-oxobutan-2-yl)carbamoyl)pyrrolidin-1-yl)-8-oxooct-5-en-4-yl)carbamate]", "values": [{"measurement": "cytotoxicity compared with unconjugated veliparib", "setting": "[1]; P<0.05", "value": "significantly less toxic"}, {"measurement": "concentration at which neurotoxicity (defined as >10% cell death) was seen", "setting": "[1]", "value": 10, "unit": "µM"}, {"measurement": "LDH release after OGD", "setting": "primary cortical neurons [2]; 10 nM, 2 h OGD, then 24 h, mean±SD, vehicle 38.0±2.5%", "value": "12.4±3.1", "unit": "%"}, {"measurement": "reduction of OGD-induced cell death vs. vehicle", "setting": "primary cortical neurons [2]; 10 nM, 2 h OGD, then 24 h normal culture", "value": 67, "unit": "%"}, {"measurement": "effect on OGD-induced cell death at low nanomolar concentrations", "setting": "primary cortical neurons [2]; 2 h OGD, then 24 h", "value": "significantly attenuated OGD-induced cell death"}, {"measurement": "protection against OGD at concentrations >100 nM", "setting": "primary cortical neurons [2]", "value": "no additional protection"}, {"measurement": "mitochondrial NAD+ stores after OGD", "setting": "primary cortical neurons [3]", "value": "preserve mitochondrial NAD^+ stores"}, {"measurement": "efflux of NAD+ from the mitochondria to the cytosol", "setting": "primary cortical neurons [3]; 10 nM, 24 h after OGD", "value": "prevented efflux of NAD^+ from the mitochondria to the cytosol"}, {"measurement": "concentration at which radiation damage was decreased", "setting": "[4]", "value": "≥ 5", "unit": "µM"}, {"measurement": "survival after IR", "setting": "[4]", "value": 90.1, "unit": "%"}, {"measurement": "PARP1 inhibition compared with untargeted veliparib", "setting": "PARP1 [7]", "value": "similar"}, {"measurement": "mitochondrial architecture after OGD (STED)", "setting": "primary cortical neurons [5]", "value": "partially preserved"}, {"measurement": "PAR immunoreactivity after OGD vs. vehicle (STED)", "setting": "primary cortical neurons [5]; 1 h", "value": "reduced"}, {"measurement": "PAR immunofluorescence after OGD (confocal)", "setting": "primary cortical neurons [5]", "value": "reduction of PAR immunofluorescence"}, {"measurement": "concentration in mitochondria-enriched fractions", "setting": "[8]", "value": "116±55", "unit": "pmol/10 μg protein"}, {"measurement": "concentration in nuclear-enriched fractions", "setting": "[8]", "value": "29±27", "unit": "pmol/10 μg protein"}, {"measurement": "PARP1 inhibitory capacity of mitochondria-enriched fractions compared to unconjugated veliparib", "setting": "PARP1 [9]", "value": "greater PARP1 inhibitory capacity"}, {"measurement": "number of PCR-detectable mtDNA lesions following γ-IR", "setting": "[6]; DNA extracted 4 and 24 h post-IR, vehicle 0.48±0.03", "value": "0.30±0.03"}, {"measurement": "efficacy vs. veliparib at higher concentrations", "setting": "HT22 cells; 10 μM, LDH at 24 h", "value": "slightly more effective than veliparib"}, {"measurement": "effect on glutamate-induced ferroptosis", "setting": "HT22 cells", "value": "inhibit glutamate-induced ferroptosis"}]}]}
